These compounds were tested against T1, Universal stress protein (USP, Rv1636) (Mycobacterium tuberculosis, UniProt P9WFC9) (assay: biochemical).
T1 construct: His-tagged Rv1636
Format: binding

T1 sequence (P9WFC9 whole entry): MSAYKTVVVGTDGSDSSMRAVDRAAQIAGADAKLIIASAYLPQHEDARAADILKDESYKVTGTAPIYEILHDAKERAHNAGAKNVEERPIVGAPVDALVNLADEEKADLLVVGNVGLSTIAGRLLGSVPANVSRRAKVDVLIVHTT

Row | Compound | Kd
1 | COc1cc(/C=C/C(=O)CC(=O)/C=C/c2ccc(O)c(OC)c2)ccc1O [Curcumin] | 17.4 ± 0.8 µM
2 | NC(=O)NCCC[C@@H](NC(=O)CCn1ccc2c(Cl)cccc21)C(=O)O [compound 20, (R)-2-(3-(4-chloro-1H-indol-1-yl)propanamido)-5-ureidopentanoic acid] | 1720 ± 731 µM
3 | COc1cc2c(cc1OC)-c1cc(NCCCCN)nc(=O)n1CC2 [compound 19, 2-((4-aminobutyl)amino)-9,10-dimethoxy-6,7-dihydro-4H-pyrimido[6,1-a]isoquinolin-4-one] | 998 ± 82 µM
